Measurements as given in US20230057309A1, “Inhibitors of DREAM Complex Assembly and/or Function For Use In Repairing DNA Damage” (priority 2021, published 2023).

Legend:
U2OS cells [1] = experiment: DNA repair kinetics in U2OS cells, γH2AX antibody staining after UV; assay type: cell-based, human; details: quiescent cells, hours after UV; harmine 10 μM, INDY 25 μM
Procedure: Before the genotoxic treatment, cells are washed with FBS-free medium. For the UV treatment, medium is removed from the plates and cells are irradiated using 254 nm UV-C light Phillips UV6 bulbs. The MMS treatment is performed, e.g., by adding MMS at 2 mM for 2 hours, followed by 3 washes with FBS-free medium. Cells are fixed in a solution comprising PFA on HistoBond+ Adhesion Microscope Slides (Marienfeld, 0810461). To estimate the total amount of DNA damage per cell, the fixed cells are incubated overnight at 4° C. in PBS comprising anti-γH2AX antibody (Mouse anti-phospho-Histone H2A.X (Ser139), clone JBW301, Millipore, Cat #: 05-636), then washed 5 times 10 minutes in a suitable buffer at RT, prior to incubation for at least two hours with a secondary antibody. Finally, the slides are washed another 5 times 10 minutes in PBS-T and dried overnight. The next morning, slides are sealed with a cover slip.

U2OS cells [2] = experiment: MMS-induced apoptosis in quiescent U2OS cells (Annexin V / 7-AAD FACS); assay type: cell-based, human; details: MMS 2 mM for 2 hours; 24 h after treatment; harmine 10 μM, INDY 25 μM
Procedure: (§1) U2OS were cultured in DMEM, high glucose GlutaMAX Supplement, Pyruvate (Thermo Fisher Scientific, 31966047) with 10% fetal bovine serum (FBS; Biochrom GmbH, S0615) and 1% Penicillin-Streptomycin (Thermo Fisher Scientific, 15140112). Cells were kept at 37° C. in a 5% CO2 incubator (Binder). Cell dissociation from the plates was performed with Accutase (Sigma, A6964). Cells were cultivated in FBS-free medium for 48 hours before genotoxic treatment were applied. […] Before the genotoxic treatment, cells were washed with FBS-free medium. For the UV treatment, medium was removed from the plates and cells were irradiated using 254 nm UV-C light Phillips UV6 bulbs. The MMS treatment was performed by adding MMS at 2 mM for 2 hours, followed by 3 washes with FBS-free medium. Quantification via FACS of cell death and apoptosis was performed 24 hours after genotoxic treatment.
(§2) Collected cells were incubated in Annexin V Binding buffer (BioLegend, 422201) with Pacific Blue Annexin V (BioLegend, 640917) and 7-AAD (Thermo Fisher Scientific, 00699350) at 4° C. for 15 minutes. Cells were measured using a MACSQuant VYB (Miltenyi Biotec) and analyzed using FlowJo (BD).

DREAM target genes = experiment: RNA-seq of quiescent (serum-starved) U2OS cells treated with DYRK1A inhibitors; assay type: cell-based, human; details: 24 h treatment, harmine 10 μM, INDY 25 μM; for number of the 67 DNA repair genes bound by DREAM that were upregulated: FDR<0.01
Procedure: as §1
For the qPCRs and RNA-seq on L1 worms, around 10.000 (qPCR) or 40.000 (RNA-seq) bleach-synchronized L1 worms in triplicates (qPCR) or quadruplicates (RNA-seq) per strain and condition were placed in seeded NGM plates and left at 20° C. for 3 hours. Posteriorly, they were irradiated with a 310 nm UV-B light Philips UV6 bulb in a Waldmann UV236B irradiation device or left unirradiated, and left for 6 more hours to allow the DNA damage related transcriptional changes to be taking place. After this, worms were collected, washed three times with M9 buffer, and the pellet was placed in a tube containing 1 ml of TRIzol™ (Invitrogen, 15596018) and 1 mm zirconia/silica beads (Biospec Products, 11079110z). To extract the RNA, worms were first disrupted with a Precellys24 (Bertin Instruments, P000669-PR240-A), and then the RNA isolation was performed by using the RNeasy Mini Kit (QIAGEN, 74106) following the manufacturer's specifications, except for the use of 1-bromo-3-chloropropane (Sigma, B9673) instead of chloroform. The RNA was quantified using NanoDrop™ 8000 (ThermoFisher, ND-8000-GL). […] Cells were disrupted with RLT buffer and homogenized with QIAshredder spin columns (QIAGEN, 79656).
The human RNA-seq data were processed with Salmon-1.1 (Patro et al., 2017) against a decoy-aware transcriptome (gencode.v37 transcripts and the GRCh38.primary_assembly genome) with the following parameter: --validateMappings -gcBias -seqBias. The output was imported and summarized to the gene-level with tximport (1.14.2) (Soneson, Love and Robinson, 2016) and differential gene analysis was done with edgeR (3.28.1) (Robinson, McCarthy and Smyth, 2009).

U2OS cells [3] = experiment: UV-induced apoptosis in quiescent U2OS cells (Annexin V / 7-AAD FACS); assay type: cell-based, human; details: UV 2 mJ·cm-2; 24 h after UV; harmine 10 μM, INDY 25 μM
Procedure: as §1, §2

DYRK1A kinase = DYRK1A kinase (Homo sapiens, UniProt Q13627); details: cited from earlier work
Ercc1−/− mice = experiment: Photoreceptor cell loss in Ercc1 knockout mouse model of premature aging (TUNEL staining of retina); assay type: in vivo; details: 10 mg/kg i.p. 3 times/week from P3, retina at P15
Excerpt: Mice were sacrificed at postnatal day P15 for retina tissue isolation. Tissues were embedded in optimal cutting temperature (OCT) compound, cryosectioned and stained using in situ cell detection kit (TUNEL staining) (11684817910, Roche).

[4] = biological target: T1, monoamine oxidase A (MAOA) (Homo sapiens, UniProt P21397); details: cited from earlier work
T1 sequence (P21397 1-527): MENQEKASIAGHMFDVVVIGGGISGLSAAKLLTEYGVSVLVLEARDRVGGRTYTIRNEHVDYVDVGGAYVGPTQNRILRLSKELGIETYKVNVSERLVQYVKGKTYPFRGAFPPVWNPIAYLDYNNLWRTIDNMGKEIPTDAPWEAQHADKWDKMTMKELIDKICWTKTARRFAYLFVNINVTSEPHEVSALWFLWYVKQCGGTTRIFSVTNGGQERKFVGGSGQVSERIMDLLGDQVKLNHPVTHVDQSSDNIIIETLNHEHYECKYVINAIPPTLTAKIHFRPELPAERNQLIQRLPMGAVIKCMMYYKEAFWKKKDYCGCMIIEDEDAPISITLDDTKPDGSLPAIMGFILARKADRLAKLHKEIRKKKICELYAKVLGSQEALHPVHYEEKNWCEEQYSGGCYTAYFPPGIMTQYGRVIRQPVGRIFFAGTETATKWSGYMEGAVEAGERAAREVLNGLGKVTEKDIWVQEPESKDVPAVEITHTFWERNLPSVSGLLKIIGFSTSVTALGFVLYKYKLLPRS

[5] = test system: Podocyte-specific Ercc1 knockout mice; experiment: Kidney function (proteinuria) in podocyte-specific Ercc1 knockout mice; assay type: in vivo, mouse; details: 10 mg/kg/day for 4 weeks from 3 weeks of age; urine 8 and 11 days afterwards
Procedure: Proteinuria as endpoint for kidney dysfunction was assessed by Coomassie brilliant blue staining in urine 8 days (FIG. 7A) and 11 days (FIG. 7B) afterwards.
Proteinuria as endpoint for kidney dysfunction was assessed in urine 8 days and 11 days afterwards by assessing overall protein levels in urine samples via Coomassie brilliant blue staining after electrophoretic separation in a polyacrylamide gel.

## CCN1/C(=C/C(C)=O)Sc2ccc(O)cc21 [INDY, (1Z)-1-(3-ethyl-5-hydroxy-2(3H)-benzothiazoylidene)-2-propanone]
U2OS cells [1]
  γH2AX amount after UV irradiation vs control cells: significantly lower amounts of γH2AX
U2OS cells [2]
  resistance to MMS (apoptotic cells): boosted the resistance to the alkylating agent MMS
DREAM target genes
  expression of DREAM target genes: upregulation of DREAM target genes
  number of the 67 DNA repair genes bound by DREAM that were upregulated: 46
U2OS cells [3]
  UV-induced apoptosis (annexin V positive + annexin V/7-AAD positive cells) vs mock treated cells: highly significant reduction in UV-induced apoptosis
DYRK1A kinase
  DYRK1A inhibition, selectivity: highly selective DYRK1A inhibitor

## COc1ccc2c(c1)[nH]c1c(C)nccc12 [harmine]
Ercc1−/− mice
  apoptosis in photoreceptor cells (TUNEL): prevented apoptosis in photoreceptor cells
[4]
  MAOA inhibition: could also inhibit monoamine oxidase A (MAOA)
U2OS cells [2]
  resistance to MMS (apoptotic cells): boosted the resistance to the alkylating agent MMS
DREAM target genes
  expression of DREAM target genes: upregulation of DREAM target genes
  number of the 67 DNA repair genes bound by DREAM that were upregulated: 58
U2OS cells [3]
  UV-induced apoptosis (annexin V positive + annexin V/7-AAD positive cells) vs mock treated cells: highly significant reduction in UV-induced apoptosis
[5]
  proteinuria (Coomassie staining of urine): mitigation of proteinuria
